We go through 2 compounds from ChEMBL document CHEMBL4725259 (Bioorg Med Chem, 2020).

Activity calls are given as the source filed them. No cut-off for these calls is given here.

Test [1] deals with C-X-C chemokine receptor type 4 (Homo sapiens, UniProt P61073). Nature of the test: Antagonist activity at human CXCR4 expressed in mouse C2C12 cells at 20 uM by PathHunter beta-arrestin assay relative to control. The following applies: filed as antagonist. The format is cell-based.
The target in test [2] is C-C chemokine receptor type 8 (Homo sapiens, UniProt P51685). Nature of the test: Agonist activity at human CCR8 expressed in CHO-K1 cells at 20 uM by PathHunter beta-arrestin assay relative to control. The format is cell-based.
Sequence of C-C chemokine receptor type 8 (P51685 whole entry): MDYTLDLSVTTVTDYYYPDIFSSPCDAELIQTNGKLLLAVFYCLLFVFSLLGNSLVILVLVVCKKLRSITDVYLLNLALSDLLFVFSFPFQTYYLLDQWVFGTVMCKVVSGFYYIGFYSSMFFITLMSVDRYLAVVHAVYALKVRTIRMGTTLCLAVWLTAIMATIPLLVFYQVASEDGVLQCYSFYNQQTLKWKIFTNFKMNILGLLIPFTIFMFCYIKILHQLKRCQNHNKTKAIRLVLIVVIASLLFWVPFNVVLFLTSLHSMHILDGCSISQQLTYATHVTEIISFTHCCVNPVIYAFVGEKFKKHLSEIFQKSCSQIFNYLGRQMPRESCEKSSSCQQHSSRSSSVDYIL
The target of test [3] is T1, C-C chemokine receptor type 3 (Homo sapiens) (UniProt P51677).
T1 sequence (whole entry): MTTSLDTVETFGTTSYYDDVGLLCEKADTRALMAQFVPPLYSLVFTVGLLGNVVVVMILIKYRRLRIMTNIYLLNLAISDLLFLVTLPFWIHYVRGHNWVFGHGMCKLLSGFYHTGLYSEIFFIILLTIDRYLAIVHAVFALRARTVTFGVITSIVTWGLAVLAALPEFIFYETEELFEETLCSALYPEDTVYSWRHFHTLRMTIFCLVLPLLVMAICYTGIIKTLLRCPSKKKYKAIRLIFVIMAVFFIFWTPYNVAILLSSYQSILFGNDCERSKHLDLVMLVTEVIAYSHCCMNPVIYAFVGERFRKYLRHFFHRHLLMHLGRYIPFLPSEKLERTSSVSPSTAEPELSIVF
Put plainly: Antagonist activity at human CCR3 expressed in CHO-K1 cells at 20 uM by PathHunter beta-arrestin assay relative to control. The format is cell-based. The following applies: filed as antagonist.

The test system of test [4] is U2OS. Nature of the test: Agonist activity at NPSR1B in human U2OS cells at 20 uM by PathHunter beta-arrestin assay relative to control. The format is cell-based.
In test [5] the target is T2, Follicle-stimulating hormone receptor (Homo sapiens) (UniProt P23945).
T2 sequence (whole entry): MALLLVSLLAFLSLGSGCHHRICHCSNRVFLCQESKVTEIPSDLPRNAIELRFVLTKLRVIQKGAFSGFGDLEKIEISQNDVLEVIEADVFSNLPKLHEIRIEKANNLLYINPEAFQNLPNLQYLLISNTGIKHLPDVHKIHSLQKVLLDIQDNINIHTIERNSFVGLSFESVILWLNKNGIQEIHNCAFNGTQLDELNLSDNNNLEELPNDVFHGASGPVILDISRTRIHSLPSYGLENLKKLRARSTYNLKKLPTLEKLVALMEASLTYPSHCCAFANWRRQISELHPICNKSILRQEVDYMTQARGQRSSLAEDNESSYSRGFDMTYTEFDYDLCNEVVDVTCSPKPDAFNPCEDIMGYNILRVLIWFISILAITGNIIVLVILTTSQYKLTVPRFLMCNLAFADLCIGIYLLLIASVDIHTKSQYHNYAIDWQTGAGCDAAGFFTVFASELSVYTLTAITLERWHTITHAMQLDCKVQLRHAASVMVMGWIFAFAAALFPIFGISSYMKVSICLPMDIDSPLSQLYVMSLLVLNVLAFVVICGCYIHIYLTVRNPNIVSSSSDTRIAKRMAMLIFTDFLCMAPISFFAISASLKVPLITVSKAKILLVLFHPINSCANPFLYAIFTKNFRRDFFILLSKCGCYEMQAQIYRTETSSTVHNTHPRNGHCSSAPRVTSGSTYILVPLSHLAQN
Nature of the test: Agonist activity at human FSHR expressed in CHO-K1 cells at 20 uM by PathHunter beta-arrestin assay relative to control. The format is cell-based.

Test [6] addresses T2, Follicle-stimulating hormone receptor (Homo sapiens). Put plainly: Antagonist activity at human FSHR expressed in CHO-K1 cells at 20 uM by PathHunter beta-arrestin assay relative to control. The format is cell-based. The following applies: filed as antagonist.
In test [7] the target is T3, CX3C chemokine receptor 1 (Homo sapiens) (UniProt P49238).
T3 sequence (whole entry): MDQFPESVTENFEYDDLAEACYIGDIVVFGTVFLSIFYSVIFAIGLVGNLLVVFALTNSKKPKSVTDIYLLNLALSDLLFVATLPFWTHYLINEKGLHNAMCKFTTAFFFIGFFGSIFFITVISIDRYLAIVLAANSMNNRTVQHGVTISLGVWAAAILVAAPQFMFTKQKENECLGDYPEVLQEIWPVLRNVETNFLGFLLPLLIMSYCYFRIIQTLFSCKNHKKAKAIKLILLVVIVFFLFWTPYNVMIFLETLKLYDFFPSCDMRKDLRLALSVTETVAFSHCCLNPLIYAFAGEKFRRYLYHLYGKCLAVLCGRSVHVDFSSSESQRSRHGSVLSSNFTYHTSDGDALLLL
Put plainly: Antagonist activity at human CX3CR1 expressed in CHO-K1 cells at 20 uM by PathHunter beta-arrestin assay relative to control. The format is cell-based. The following applies: filed as antagonist.

Test [8] deals with T4, Prolactin-releasing peptide receptor (Homo sapiens) (UniProt P49683).
T4 sequence (whole entry): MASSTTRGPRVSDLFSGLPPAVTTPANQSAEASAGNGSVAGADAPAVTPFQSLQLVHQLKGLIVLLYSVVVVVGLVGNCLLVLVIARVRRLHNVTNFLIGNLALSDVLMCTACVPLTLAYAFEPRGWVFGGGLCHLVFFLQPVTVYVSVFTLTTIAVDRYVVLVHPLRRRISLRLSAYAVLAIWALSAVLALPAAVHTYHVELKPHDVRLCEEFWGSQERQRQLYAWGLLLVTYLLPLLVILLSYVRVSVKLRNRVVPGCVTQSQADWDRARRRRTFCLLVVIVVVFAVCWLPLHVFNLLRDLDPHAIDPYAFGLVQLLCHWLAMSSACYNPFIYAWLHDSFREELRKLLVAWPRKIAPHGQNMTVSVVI
Put plainly: Antagonist activity at human PRLHR expressed in CHO-K1 cells at 20 uM by PathHunter beta-arrestin assay relative to control. The format is cell-based. The following applies: filed as antagonist.

A further test deals with Vasopressin V2 receptor (Homo sapiens, UniProt P30518). Put plainly: Agonist activity at human AVPR2 at 20 uM by PathHunter beta-arrestin assay relative to control.
Sequence of Vasopressin V2 receptor (P30518 whole entry): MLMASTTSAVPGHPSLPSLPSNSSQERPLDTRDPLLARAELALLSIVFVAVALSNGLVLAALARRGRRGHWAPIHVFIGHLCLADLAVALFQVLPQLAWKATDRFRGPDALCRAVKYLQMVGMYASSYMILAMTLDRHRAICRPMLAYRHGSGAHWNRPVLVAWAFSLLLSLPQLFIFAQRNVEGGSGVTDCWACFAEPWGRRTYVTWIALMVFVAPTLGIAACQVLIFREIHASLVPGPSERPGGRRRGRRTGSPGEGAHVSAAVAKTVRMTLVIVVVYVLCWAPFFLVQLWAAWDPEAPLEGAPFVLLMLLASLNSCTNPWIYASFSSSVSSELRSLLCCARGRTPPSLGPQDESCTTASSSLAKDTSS
In test [9] the target is T1, C-C chemokine receptor type 3 (Homo sapiens). Nature of the test: Agonist activity at human CCR3 expressed in CHO-K1 cells at 20 uM by PathHunter beta-arrestin assay relative to control. The format is cell-based.
For test [10], the target named is T5, Oxytocin receptor (Homo sapiens) (UniProt P30559).
T5 sequence (whole entry): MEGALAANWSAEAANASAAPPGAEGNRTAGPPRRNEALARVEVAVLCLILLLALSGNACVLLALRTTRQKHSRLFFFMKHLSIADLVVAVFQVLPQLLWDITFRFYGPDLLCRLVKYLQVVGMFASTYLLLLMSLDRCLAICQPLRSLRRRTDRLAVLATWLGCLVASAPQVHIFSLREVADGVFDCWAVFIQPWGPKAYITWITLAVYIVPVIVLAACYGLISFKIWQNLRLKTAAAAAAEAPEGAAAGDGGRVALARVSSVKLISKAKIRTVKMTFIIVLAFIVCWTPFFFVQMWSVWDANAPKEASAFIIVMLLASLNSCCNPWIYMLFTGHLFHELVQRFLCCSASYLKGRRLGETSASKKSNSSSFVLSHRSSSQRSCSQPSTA
Put plainly: Agonist activity at human OXTR expressed in CHO-K1 cells at 20 uM by PathHunter beta-arrestin assay relative to control. The format is cell-based.

For test [11], the system named is U2OS. Nature of the test: Antagonist activity at NPSR1B in human U2OS cells at 20 uM by PathHunter beta-arrestin assay relative to control. To be noted: filed as antagonist. The format is cell-based.

Sequence of C-X-C chemokine receptor type 4 (P61073 whole entry): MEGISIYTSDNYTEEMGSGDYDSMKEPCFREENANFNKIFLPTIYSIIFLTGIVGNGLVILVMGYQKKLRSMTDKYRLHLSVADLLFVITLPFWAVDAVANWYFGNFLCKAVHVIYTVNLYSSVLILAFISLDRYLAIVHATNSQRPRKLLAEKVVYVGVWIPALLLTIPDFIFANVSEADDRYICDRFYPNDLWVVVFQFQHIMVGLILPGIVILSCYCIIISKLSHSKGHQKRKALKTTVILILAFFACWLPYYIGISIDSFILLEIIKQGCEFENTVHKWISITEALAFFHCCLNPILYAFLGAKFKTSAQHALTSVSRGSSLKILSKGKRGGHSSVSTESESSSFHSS

As for `COC(=O)[C@@H]1[C@H]2C[C@@H]3N(CC[C@@]34C(=O)N(Cc3cccc(OC)c3)c3ccccc34)C[C@@H]2CC[C@@H]1OCc1cccc(OC)c1`, the inhibition in test [1] amounted to 39%; in [3], 89%; in test [6], 56%; in test [7], 72%; in test [8], 63%; in the test with U2OS [11], 48%. Moreover, the outcome (in [2]; in the test on U2OS [4]; in test [5]; on Vasopressin V2 receptor; in test [9]; in [10]) was inactive.
Regarding `COC(=O)[C@@H]1[C@H]2C[C@@H](c3[nH]c4ccccc4c3CCn3cc(-c4cccc(Cl)c4)nn3)N(C#N)C[C@@H]2CC[C@@H]1O`, the inhibition in test [1] worked out at 125%; in [3], 112%; in [6], 51%; in [7], 92%; in test [8] it was 19%; in the test on U2OS [11], 62%. Further, the result (in [2]; with U2OS [4]; in test [5]; at Vasopressin V2 receptor; in test [9]; in [10]) was inactive.

As usually defined, the inhibition is the change of the read-out against control, counted positive when it falls.
